In US10413555B2, “Treatment of skin atrophy with a combination of triiodothyroacetic acid (TRIAC) and dehydroepiandrosterone (DHEA)” (TROPHEA DEVELOPMENT AB, priority 2014, dated 2019):
Read-outs that look alike come from different tables or passages of the source.

Columns and labels:
[1] = topical corticosteroid, Group III; cited from earlier work
Procollagen I (PINP) = experiment: PINP in suction blister fluid from skin pretreated with betamethasone valerate, then treated with test formulations; type: in vivo, human; details: suction blister fluid after 14 days treatment
Source text: Six healthy male volunteers aged 40-65 years. Criteria for exclusion are: treatment with systemic or topical glucocorticoids, ongoing serious infections, immunosuppression.
TRIAC and DHEA were obtained from Sigma. They were mixed with Essex cream (Merck) to obtain 4 different study formulations: • A. 0.03% TRIAC in Essex cream • B. 0.03% TRIAC and 2% DHEA in Essex cream • C. Essex cream alone. • D. 2% DHEA in Essex cream
A proof-of-concept, single blinded, open prospective study comparing, TRIAC, DHEA and the combination of the two as compared with non-active treatment on short-term glucocorticoid-induced skin atrophy.
The test area was normal looking abdominal skin in 6 male volunteers. Four different skin areas of 10×10 cm were marked with a permanent marker pen.
All areas were pretreated twice daily with betametasone valerate (Betnovate, GSK) 0.5 gr twice daily for 21 days. Then each test area was treated, with 0.5 gr twice daily of one of the test formulations, for 14 days.
Suction blisters were induced with a disposable device (Dermovac, Ventipress, Lappeeranta, Finland) placed on the test areas and connected to a vacuum pump with a vacuum of approximately 60 mm Hg. Each device produces five suction blisters within approximately one hour. The resulting fluid was collected, using a syringe, and then combined and frozen at −70° C. […]

post-menopausal women = details: DHEA 1% formulation, topical, facial and hand skin, 4 months, versus vehicle; cited from earlier work
elderly people = details: oral route; cited from earlier work
Ames' test = type: cell-based
Source text: (§1) The genotoxic potential of TRIAC has been investigated in the Ames' test and in in vitro chromosome aberration assay in cultured human peripheral lymphocytes.

[2] = tested on: cultured human peripheral lymphocytes; experiment: In vitro chromosome aberration assay; type: cell-based
Source text: as §1

mice = details: cited from earlier work
psoriasis = details: TRIAC 0.1% ointment; cited from earlier work
procollagen I and III = details: cited from earlier work
[3] = tested on: patients with skin atrophy on the dorsum of their hands; details: cited from earlier work
thyroid hormone levels = details: cited from earlier work
metabolic effects = details: cited from earlier work
rats [4] = details: cited from earlier work
rats [5] = details: rat, in vivo, 2000 mg/kg; cited from earlier work

CCCCC(=O)O[C@]1(C(=O)CO)[C@@H](C)C[C@H]2[C@@H]3CCC4=CC(=O)C=C[C@]4(C)[C@@]3(F)[C@@H](O)C[C@@]21C [Betamethasone valerate]
potency relative to hydrocortisone [1]: 50-100 times

C[C@]12CC[C@H](O)CC1=CC[C@@H]1[C@@H]2CC[C@]2(C)C(=O)CC[C@@H]12 [DHEA, dehydroepiandrosterone]
PINP concentration, comparison between treatments (Procollagen I (PINP)): only slightly better than treatment with placebo
effect on skin aging features (post-menopausal women): improved skin brightness and counteract papery appearance of the skin and epidermal atrophy
effect on skin conditions (elderly people): positive effect

O=C(O)Cc1cc(I)c(Oc2ccc(O)c(I)c2)c(I)c1 [TRIAC, triiodothyroacetic acid]
genotoxic potential (Ames' test): no genotoxic potential
genotoxic potential [2]: no genotoxic potential
skin thickness in mice pretreated with betamethasone valerate (mice; TRIAC alone, 0.03%): could restore skin thickness
effect on skin atrophy induced by potent topical glucocorticoids (mice; topical administration, mice): prevents skin atrophy
skin thickness of normal skin (mice; topical, mice): increase skin thickness
side effects (mice; topical, compared with vitamin A and D derivatives): no side effects were seen
effect on psoriasis in comparison with placebo (psoriasis): no statistically significant effects
safety of topical treatment (psoriasis): safe
procollagen I and III compared to placebo (procollagen I and III; TRIAC 0.03% and 0.1% cream, both groups, 7 days after start of treatment, pre-treatment with topical betamethasone 17-valerate): statistically significant increase
PINP synthesis compared to placebo (procollagen I and III; TRIAC 0.03% cream, healthy volunteers, skin pretreated with betamethasone valerate): significantly more effective
skin thickness in epidermis and dermis ([3]; TRIAC 0.1% cream, after 8 weeks of treatment): significantly higher
effect on glucocorticoid-induced skin atrophy ([3]; topical, patients treated with potent topical corticosteroids for hand eczema): appears to reverse glucocorticoid-induced skin atrophy
effects on thyroid hormone levels (thyroid hormone levels; all 3 clinical studies, after 8 weeks treatment): no significant effects
other blood analysis (thyroid hormone levels; clinical studies (15-16)): normal levels
dose necessary to obtain similar metabolic effects, relative to T3 (metabolic effects; human, in vivo): greater than 15 times
dose necessary to obtain similar metabolic effects, relative to T4 (metabolic effects; human, in vivo): > 10 times
tachycardia compared with T4 or T3 (metabolic effects; human, in vivo): does not evoke tachycardia as effectively as T4 or T3
tolerability (metabolic effects; oral administration, daily doses of 3.4 mg, up to 3 weeks): well tolerated
lowest lethal dose (rats [4]; rat, in vivo, ip): 100 mg/kg
LD50 (rats [4]; single dose, intraperitoneal, female rats): 295 mg/kg
LD50 (rats [4]; single dose, intraperitoneal, male rats): 143 mg/kg
no observed effect level (NOEL) (rats [4]; single dose, intraperitoneal, suspended in 0.8% hydroxyl propyl methylcellulose gel, rats): 46.4 mg/kg
general toxicity and local irritation (rats [5]): neither any clinical signs of general toxicity nor any local irritation
